One test deals with Ba/F3 LMNA-NTRK1 cells. Description: Assay for inhibiting the proliferation of Ba/F3 LMNA-NTRK1 cells (CCK-8). Format: cell-based. The settings on record: Mus musculus, BaF3. On the procedure: In particular, the method of the assay of small molecular compounds for inhibiting cell proliferation is as follows: • 1. Cells cultured to a logarithmic growth phase (adherent cells need to be digested with trypsin and neutralized) were taken, pipetted evenly, transferred to a 15 mL centrifuge tube, and centrifuged at 1000 rpm at room temperature for 4 minutes; • 2. The supernatant was discarded; 5 mL of complete medium was added and pipetted evenly; 10 μL of cell suspension was taken out, mixed well with 10 μL of 0.4% trypan blue, and counted under a cell counter; the proportion of living cells was ensured to be above 90%; • 3. 80 μL of cell suspension per well was seeded into a 96-well plate according to the conditions shown in the attached table, and cultured overnight; in the outer 36 wells of the 96-well plate, no cells were added but only sterile water was added; only the inner 60 wells were used for cell assay and control; • 4. […] 20 μL of the corresponding compounds with different concentration gradients were added to each well of assay wells of the 96-well plate; 20 μL of complete medium was added to positive and negative control wells and shaken well; and the final concentration of DMSO in each well was 0.25%; • 6. After 72 hours of incubation, 10 μL of CCK-8 reagent was added to each well and further incubated at 37° C. for 1-2 hours; and the OD value was read at 450 nm; • 7. Cell survival rate (%)=[(As−Ab)/(Ac−Ab)]*100% • As: Assay well (medium containing cells, CCK-8, compound), • Ac: Control well (medium containing cells, CCK-8), • Ab: Blank well (CCK-8, medium without cell and compound), • 8. The values were imported into Graphpad Prism 5 software for IC50 calculation.

For another test, the target named is c-MET kinase (Homo sapiens (Human), UniProt P08581). The test can be described thus: Assay of small molecular compounds for inhibiting the activity of c-MET kinase (LANCE TR-FRET). The conditions noted are these: read-out: CMET IC50. The test is classed as biochemical. Put shortly: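 Eleven final concentrations from 2500 nM down to 0.042 nM, in 4% DMSO, were tested against human c-MET (2× stock 2 nM), with compound and enzyme premixed for 5 min. The phosphorylation reaction used 4× stock of 400 nM ULight-JAK-1 peptide and 40 μM ATP for 60 min at room temperature, then stop and detection steps. TR-FRET percent inhibition against positive and negative controls gave the IC50.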
Chain of c-MET kinase (P08581 25-1390): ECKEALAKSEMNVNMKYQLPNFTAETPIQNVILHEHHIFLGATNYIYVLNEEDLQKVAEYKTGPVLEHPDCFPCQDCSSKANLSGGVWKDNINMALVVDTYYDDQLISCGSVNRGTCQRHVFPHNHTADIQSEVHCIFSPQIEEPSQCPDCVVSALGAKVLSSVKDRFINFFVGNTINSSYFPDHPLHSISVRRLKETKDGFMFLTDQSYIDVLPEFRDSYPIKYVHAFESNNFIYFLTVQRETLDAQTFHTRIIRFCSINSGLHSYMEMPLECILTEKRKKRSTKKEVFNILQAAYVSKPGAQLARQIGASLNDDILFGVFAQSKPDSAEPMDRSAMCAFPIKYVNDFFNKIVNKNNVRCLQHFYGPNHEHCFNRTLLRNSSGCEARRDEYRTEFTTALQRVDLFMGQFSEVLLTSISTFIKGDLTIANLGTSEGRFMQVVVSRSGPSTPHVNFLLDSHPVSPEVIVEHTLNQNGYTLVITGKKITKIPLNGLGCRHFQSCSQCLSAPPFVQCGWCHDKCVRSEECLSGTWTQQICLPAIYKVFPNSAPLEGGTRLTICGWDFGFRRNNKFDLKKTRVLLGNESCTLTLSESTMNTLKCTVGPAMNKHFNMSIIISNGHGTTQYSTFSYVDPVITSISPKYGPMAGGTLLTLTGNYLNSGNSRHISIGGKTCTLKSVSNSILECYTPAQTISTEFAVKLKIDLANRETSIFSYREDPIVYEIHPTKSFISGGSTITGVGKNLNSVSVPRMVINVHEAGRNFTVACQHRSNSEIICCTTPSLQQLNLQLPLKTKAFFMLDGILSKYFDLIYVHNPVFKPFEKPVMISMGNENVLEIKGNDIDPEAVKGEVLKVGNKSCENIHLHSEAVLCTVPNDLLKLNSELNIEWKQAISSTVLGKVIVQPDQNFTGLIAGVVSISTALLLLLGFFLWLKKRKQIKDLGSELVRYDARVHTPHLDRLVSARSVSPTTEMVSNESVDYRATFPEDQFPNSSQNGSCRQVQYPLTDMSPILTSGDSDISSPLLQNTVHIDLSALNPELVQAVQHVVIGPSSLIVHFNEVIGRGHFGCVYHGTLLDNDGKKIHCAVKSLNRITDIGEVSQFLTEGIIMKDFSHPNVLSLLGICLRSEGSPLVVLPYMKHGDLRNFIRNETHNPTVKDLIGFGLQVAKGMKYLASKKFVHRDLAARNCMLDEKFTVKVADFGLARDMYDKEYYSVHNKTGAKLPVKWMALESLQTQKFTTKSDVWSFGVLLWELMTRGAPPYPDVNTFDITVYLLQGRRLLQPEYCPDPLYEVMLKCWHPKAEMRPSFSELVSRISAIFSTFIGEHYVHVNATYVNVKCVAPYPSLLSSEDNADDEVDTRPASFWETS
Background: Time-resolved FRET reads energy transfer from a long-lived donor to a nearby acceptor.

In the next test the target is MER kinase (Homo sapiens (Human), UniProt Q12866). The test can be described thus: Assay of small molecular compounds for inhibiting the activity of MER kinase (LANCE TR-FRET). The test is classed as biochemical. An outline of the steps: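 LANCE TR-FRET readout of ULight-poly GT phosphorylation by MER kinase; compound final range 0.042-2500 nM, 3-fold steps, 5 min enzyme preincubation. Reaction 60 min at room temperature in the dark with substrate/ATP (4× at 200 nM/20 μM), 1% DMSO, then stopped and developed 60 min; IC50 by curve fit.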
Chain of MER kinase (Q12866 21-999): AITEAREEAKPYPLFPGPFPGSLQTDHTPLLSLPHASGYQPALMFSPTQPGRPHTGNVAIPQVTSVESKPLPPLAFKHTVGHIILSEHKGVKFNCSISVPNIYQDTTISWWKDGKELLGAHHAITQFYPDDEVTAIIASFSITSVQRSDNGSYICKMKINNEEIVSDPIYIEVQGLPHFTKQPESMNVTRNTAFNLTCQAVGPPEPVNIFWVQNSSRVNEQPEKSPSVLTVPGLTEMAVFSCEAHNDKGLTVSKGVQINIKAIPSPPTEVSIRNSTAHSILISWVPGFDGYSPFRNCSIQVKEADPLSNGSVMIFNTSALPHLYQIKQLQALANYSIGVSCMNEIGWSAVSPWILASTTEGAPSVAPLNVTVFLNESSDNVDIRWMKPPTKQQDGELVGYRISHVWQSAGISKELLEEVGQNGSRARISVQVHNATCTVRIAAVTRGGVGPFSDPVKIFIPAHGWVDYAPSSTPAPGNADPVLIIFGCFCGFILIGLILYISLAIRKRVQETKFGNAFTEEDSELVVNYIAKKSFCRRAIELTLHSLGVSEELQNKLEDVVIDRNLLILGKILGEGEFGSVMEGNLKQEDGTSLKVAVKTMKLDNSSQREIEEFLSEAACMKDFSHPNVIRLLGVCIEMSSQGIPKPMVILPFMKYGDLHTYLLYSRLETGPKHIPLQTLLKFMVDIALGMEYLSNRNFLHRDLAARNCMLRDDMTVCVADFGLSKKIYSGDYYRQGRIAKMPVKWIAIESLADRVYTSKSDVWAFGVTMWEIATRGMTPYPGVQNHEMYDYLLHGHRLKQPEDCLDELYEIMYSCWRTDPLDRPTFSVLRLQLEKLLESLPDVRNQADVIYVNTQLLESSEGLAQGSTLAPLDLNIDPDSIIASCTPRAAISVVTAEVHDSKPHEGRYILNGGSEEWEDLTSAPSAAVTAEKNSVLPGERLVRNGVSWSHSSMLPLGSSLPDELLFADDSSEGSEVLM

Another test concerns the target TRKA kinase (Homo sapiens (Human), UniProt P04629). The test can be described thus: Assay of small molecular compounds for inhibiting the activity of TRKA kinase (LANCE TR-FRET). Format: biochemical. Put shortly: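 TRKA (supplied as 2 nM 2× solution) was pre-reacted with compounds for 5 min at room temperature before a 4× ULight-TK peptide/ATP mix (400 nM/40 μM) started the 60-min dark reaction at 1% DMSO. After stop and 60-min detection, TR-FRET was read.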

The next test relates to Ba/F3-AXL cells. The test can be described thus: Assay for inhibiting the proliferation of Ba/F3-AXL cells (CCK-8). Format: cell-based. The conditions noted are these: 72 hours of incubation, medium with 100 ng/mL hGas6, CCK-8. The procedure:
The values were then imported into Graphpad Prism 5 software for curve fitting, and IC50 was calculated.

In a further test the target is VEGFR-2 kinase (Homo sapiens (Human), UniProt P35968). Description: Assay of small molecular compounds for inhibiting the activity of VEGFR-2 kinase (LANCE TR-FRET). Format: biochemical. The settings on record: read-out: VEGFR2 IC50. On the procedure: The assay is based on the LANCE TR-FRET technology of Perkin Elmer Inc., and the assay method is as follows: • 1. Dilution of compounds: a total of 11 concentrations were obtained using a 3-fold gradient dilution from the highest concentration of 2500 nM (the maximum final concentration of the drug used in this assay was 2500 nM, and the minimum final concentration was 0.042 nM). • 2. 2.5 μL of the gradient-diluted compounds were taken with a transfer pipette to a 384-well plate. • 3. Addition of enzyme: 5 μL of 2×VEGFR2 kinase solution (with a concentration of 0.5 nM) was taken with a transfer pipette to the corresponding reaction well of the 384-well plate, mixed well and pre-reacted at room temperature for 30 minutes. • 4. 2.5 μL 4× Ultra ULight™-JAK-1 (Tyr1023) Peptide (with a concentration of 200 nM)/ATP (with a concentration of 40 μM) mixture was taken with a transfer pipette to the corresponding reaction well of the 384-well plate. • 5. Negative control: 2.5 μL/well 4× substrate/ATP mixture and 7.5 μL 1× Kinase Assay Buffer were added to the wells of the 384-well plate. • 6. Positive control: 2.5 μL/well 4× substrate/ATP mixture, 2.5 μL/well 1× Kinase Assay Buffer containing 16% DMSO, and 5 μL/well 2×VEGFR-2 kinase solution were added to the 384-well plate. The final concentration of DMSO in the reaction system was 4%. • 7. The mixture was mixed well and then centrifuged and reacted at room temperature in dark for 60 min. • 8. Termination of the enzymatic reaction: 5 μL of 4× stop solution was taken with a transfer pipette to the wells of the 384-well plate, mixed and then centrifuged, and reacted at room temperature for 5 min. • 9. Development of the reaction: 5 μL of 4× detection solution was taken with a transfer pipette to the wells of the 384-well plate for color development, and the mixture was mixed and then centrifuged and reacted at room temperature for 60 min. • 10. The 384-well plate was placed into the Envision plate reader and the signal was detected using the appropriate program. • 11. Analysis and processing of the raw data: The drug concentrations and the corresponding inhibition rates were input into GraphPad Prism5 for calculation, and the inhibition rate of the compounds were calculated as follows: inhibition rate (%)=(reading of positive well−reading of experimental well)/(reading of positive control well−reading of negative control well)×100%. Processing with GraphPad Prism5 software yielded the corresponding IC50 values (the concentration of the compound at which 50% of the highest inhibition of the enzyme is achieved).
Chain of VEGFR-2 kinase (P35968 20-1356): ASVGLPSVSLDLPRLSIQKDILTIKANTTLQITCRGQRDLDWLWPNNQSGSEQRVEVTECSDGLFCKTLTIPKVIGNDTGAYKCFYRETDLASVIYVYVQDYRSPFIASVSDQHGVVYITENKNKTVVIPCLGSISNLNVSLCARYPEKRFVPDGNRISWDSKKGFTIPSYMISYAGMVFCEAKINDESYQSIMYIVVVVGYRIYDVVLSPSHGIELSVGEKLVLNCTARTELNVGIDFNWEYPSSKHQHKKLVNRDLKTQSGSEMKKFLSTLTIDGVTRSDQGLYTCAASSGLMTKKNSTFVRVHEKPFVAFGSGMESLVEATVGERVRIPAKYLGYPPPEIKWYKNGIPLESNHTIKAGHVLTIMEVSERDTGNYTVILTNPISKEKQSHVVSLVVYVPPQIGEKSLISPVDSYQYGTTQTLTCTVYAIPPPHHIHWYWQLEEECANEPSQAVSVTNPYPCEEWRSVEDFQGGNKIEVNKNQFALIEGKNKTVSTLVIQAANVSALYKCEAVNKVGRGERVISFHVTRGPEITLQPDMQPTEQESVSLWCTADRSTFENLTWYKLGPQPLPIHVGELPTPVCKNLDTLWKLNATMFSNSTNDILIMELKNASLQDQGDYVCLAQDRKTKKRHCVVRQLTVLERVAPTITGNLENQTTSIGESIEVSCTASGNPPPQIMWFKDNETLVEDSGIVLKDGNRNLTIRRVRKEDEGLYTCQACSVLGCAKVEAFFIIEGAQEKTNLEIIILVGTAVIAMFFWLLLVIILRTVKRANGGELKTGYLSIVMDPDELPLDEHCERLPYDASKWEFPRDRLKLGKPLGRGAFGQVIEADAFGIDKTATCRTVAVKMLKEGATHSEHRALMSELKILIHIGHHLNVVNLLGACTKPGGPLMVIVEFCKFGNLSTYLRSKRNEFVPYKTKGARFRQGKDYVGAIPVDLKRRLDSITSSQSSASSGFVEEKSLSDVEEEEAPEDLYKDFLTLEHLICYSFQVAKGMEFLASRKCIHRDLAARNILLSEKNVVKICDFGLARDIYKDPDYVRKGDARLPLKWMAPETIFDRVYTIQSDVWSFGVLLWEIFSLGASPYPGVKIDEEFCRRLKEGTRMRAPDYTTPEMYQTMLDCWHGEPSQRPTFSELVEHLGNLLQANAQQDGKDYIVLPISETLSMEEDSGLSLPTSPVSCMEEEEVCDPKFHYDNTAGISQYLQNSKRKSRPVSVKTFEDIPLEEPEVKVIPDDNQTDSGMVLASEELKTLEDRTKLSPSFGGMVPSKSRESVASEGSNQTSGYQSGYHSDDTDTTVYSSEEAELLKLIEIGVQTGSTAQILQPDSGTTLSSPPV

IC50 data for eleven compounds are collected here from patent publication US12202835B2, “Substituted aromatic ring-linked dioxinoquinazolines and dioxinoquinolines as kinase inhibitors” (BEIJING SCITECH-MQ PHARMACEUTICALS LIMITED, priority 2018, dated 2025).

pIC50: −log10 of the molar value.

Chain of TRKA kinase (P04629 33-796): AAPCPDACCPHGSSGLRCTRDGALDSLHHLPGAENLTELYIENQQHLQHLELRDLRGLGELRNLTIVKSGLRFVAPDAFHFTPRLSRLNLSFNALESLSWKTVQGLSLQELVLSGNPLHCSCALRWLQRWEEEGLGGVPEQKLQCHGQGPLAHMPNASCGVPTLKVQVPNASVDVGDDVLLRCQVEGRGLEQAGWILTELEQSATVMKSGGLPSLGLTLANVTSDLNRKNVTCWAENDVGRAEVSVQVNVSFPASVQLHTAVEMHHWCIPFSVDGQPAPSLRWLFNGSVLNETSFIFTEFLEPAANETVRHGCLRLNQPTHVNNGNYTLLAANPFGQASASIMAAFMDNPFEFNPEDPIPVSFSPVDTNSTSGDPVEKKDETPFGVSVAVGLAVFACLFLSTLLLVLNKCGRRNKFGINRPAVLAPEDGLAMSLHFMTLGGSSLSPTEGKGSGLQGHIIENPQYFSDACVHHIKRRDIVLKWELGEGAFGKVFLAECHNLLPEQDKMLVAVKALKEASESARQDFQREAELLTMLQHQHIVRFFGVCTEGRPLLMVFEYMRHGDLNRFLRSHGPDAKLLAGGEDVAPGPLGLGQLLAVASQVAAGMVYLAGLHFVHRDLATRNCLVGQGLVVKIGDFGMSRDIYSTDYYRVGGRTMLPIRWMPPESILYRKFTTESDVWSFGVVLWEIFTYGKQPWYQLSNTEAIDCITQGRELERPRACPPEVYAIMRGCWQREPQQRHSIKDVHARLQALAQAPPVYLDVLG

On to `COc1cn(-c2ccc(F)cc2C)nc1C(=O)Nc1ccc(Oc2ccnc3cc(OC)c4c(c23)OCCO4)c(F)c1` [Example 24, 1-(4-fluoro-2-methylphenyl)-N-(3-fluoro-4-((5-methoxy-2,3-dihydro-[1,4]dioxino[2,3-f]quinolin-10-yl)oxy)phenyl)-4-methoxy-1H-pyrazole-3-carboxamide], for which the negative-log IC50 (pIC50) (in general, the IC50 on a negative log10 scale, so that one unit is a factor of ten) was greater than 7.30 in the test with Ba/F3 LMNA-NTRK1 cells, 6.30 to 7.30 at c-MET kinase, 6.30 to 7.30 against MER kinase and greater than 7.30 against TRKA kinase.

For the compound `COc1cc2nccc(Oc3ccc(NC(=O)c4cn(C(C)C)c(=O)n(-c5cccc(F)c5)c4=O)cc3F)c2c2c1OCCO2` [Example 109, N-(3-fluoro-4-((5-methoxy-2,3-dihydro-[1,4]dioxino[2,3-f]quinolin-10-yl)oxy)phenyl)-3-(3-fluorophenyl)-1-isopropyl-2,4-dioxo-1,2,3,4-tetrahydropyrimidine-5-carboxamide], the pIC50 on c-MET kinase was no less than 7.30; at MER kinase, no less than 7.30; with Ba/F3-AXL cells it was greater than 7.30; at TRKA kinase it was 5.30 to 6.30.

As to `CC(C)n1cc(C(=O)Nc2ccc(Oc3ccnc4cc(OCC#N)c5c(c34)OCCO5)c(F)c2)c(=O)n(-c2ccc(F)cc2)c1=O` [Example 81, N-(3-fluoro-4-((5-(cyanomethoxy)-2,3-dihydro-[1,4]dioxino[2,3-f]quinolin-10-yl)oxy)phenyl)-3-(4-fluorophenyl)-1-isopropyl-2,4-dioxo-1,2,3,4-tetrahydropyrimidine-5-carboxamide], the pIC50 at c-MET kinase is 6.30 to 7.30; at MER kinase, no less than 7.30; in the test on Ba/F3-AXL cells, greater than 7.30; against TRKA kinase it was 5.30 to 6.30.

Regarding `COc1cc2nccc(Oc3ccc(NC(=O)c4cn(CC(=O)OC(C)(C)C)c(=O)n(-c5ccc(F)cc5)c4=O)cc3F)c2c2c1OCCO2` [Example 103, tert-butyl 2-(5-((3-fluoro-4-((5-methoxy-2,3-dihydro-[1,4]dioxino[2,3-f]quinolin-10-yl)oxy)phenyl)carbamoyl)-3-(4-fluorophenyl)-2,4-dioxo-3,4-dihydropyrimidin-1(2H)-yl)acetate], the values for the pIC50 against MER kinase and at VEGFR-2 kinase were 6.30 to 7.30 and 5.30 to 6.30, respectively.

On to `CC(C)n1cc(C(=O)Nc2ccc(Oc3ccnc4cc(OCCCC#N)c5c(c34)OCCO5)c(F)c2)c(=O)n(-c2ccc(F)cc2)c1=O` [Example 82, N-(3-fluoro-4-((5-(3-cyanopropoxy)-2,3-dihydro-[1,4]dioxino[2,3-f]quinolin-10-yl)oxy)phenyl)-3-(4-fluorophenyl)-1-isopropyl-2,4-dioxo-1,2,3,4-tetrahydropyrimidine-5-carboxamide], for which the pIC50 on c-MET kinase is 6.30 to 7.30; on MER kinase it was no less than 7.30; in the test with Ba/F3-AXL cells, greater than 7.30; on TRKA kinase, 6.30 to 7.30.

On to `CCn1cc(C(=O)Nc2ccc(Oc3ccnc4cc(OC5CC5)c5c(c34)OCCO5)cc2)c(=O)n(-c2ccc(F)cc2)c1=O` [Example 152, N-(4-((5-cyclopropyloxy-2,3-dihydro-[1,4]dioxino[2,3-f]quinolin-10-yl)oxy)phenyl)-3-(4-fluorophenyl)-1-ethyl-2,4-dioxo-1,2,3,4-tetrahydropyrimidine-5-carboxamide], for which the pIC50 is no less than 7.30 on c-MET kinase, less than 5.30 against TRKA kinase and less than 5.30 at VEGFR-2 kinase.

Take `CCOc1cc2nccc(Oc3ccc(NC(=O)c4cn(C(C)C)c(=O)n(-c5ccc(F)cc5)c4=O)cc3F)c2c2c1OCCO2` [Example 87, N-(3-fluoro-4-((5-ethoxy-2,3-dihydro-[1,4]dioxino[2,3-f]quinolin-10-yl)oxy)phenyl)-3-(4-fluorophenyl)-1-isopropyl-2,4-dioxo-1,2,3,4-tetrahydropyrimidine-5-carboxamide]: the pIC50 is 6.30 to 7.30 on c-MET kinase, no less than 7.30 on MER kinase, greater than 7.30 in the test on Ba/F3-AXL cells and 6.30 to 7.30 on TRKA kinase.

On to `COc1ccn(-c2ccc(F)cc2)c(=O)c1C(=O)Nc1ccc(Oc2ccnc3cc(OCCCN4CCOCC4)c4c(c23)OCCO4)cc1Cl` [Example 144, N-(2-chloro-4-((5-(3-morpholinopropoxy)-2,3-dihydro-[1,4]dioxino[2,3-f]quinolin-10-yl)oxy)phenyl)-1-(4-fluorophenyl)-4-methoxy-2-oxo-1,2-dihydropyridine-3-carboxamide], for which the pIC50 in the test with Ba/F3 LMNA-NTRK1 cells was greater than 7.30; at c-MET kinase, no less than 7.30; against TRKA kinase it was greater than 7.30; at VEGFR-2 kinase it was 6.30 to 7.30.

`CCOc1ccn(C2CCCCC2)c(=O)c1C(=O)Nc1ccc(Oc2ccnc3cc(OC)c4c(c23)OCCO4)c(F)c1` [Example 119, 1-cyclohexyl-4-ethoxy-N-(3-fluoro-4-((5-methoxy-2,3-dihydro-[1,4]dioxino[2,3-f]quinolin-1 0-yl)oxy)phenyl)-2-oxo-1,2-dihydropyridine-3-carboxamide]: the pIC50 on MER kinase is 5.30 to 6.30; on TRKA kinase, less than 5.30; at VEGFR-2 kinase it was less than 5.30.

For the compound `Cn1cc(C(=O)Nc2ccc(Oc3ccnc4cc(OC5CC5)c5c(c34)OCCO5)cc2)c(=O)n(-c2ccc(F)cc2)c1=O` [Example 151, N-(4-((5-cyclopropyloxy-2,3-dihydro-[1,4]dioxino[2,3-f]quinolin-10-yl)oxy)phenyl)-3-(4-fluorophenyl)-1-methyl-2,4-dioxo-1,2,3,4-tetrahydropyrimidine-5-carboxamide], the pIC50 at c-MET kinase was no less than 7.30; against TRKA kinase, 5.30 to 6.30; on VEGFR-2 kinase it was 5.30 to 6.30.

For `N#CCCCOc1cc2nccc(Oc3ccc(NC(=O)c4cccn(-c5ccc(F)cc5)c4=O)c(Cl)c3)c2c2c1OCCO2` [Example 131, N-(2-chloro-4-((5-(3-cyanopropoxy)-2,3-dihydro-[1,4]dioxino[2,3-f]quinolin-10-yl)oxy)phenyl)-1-(4-fluorophenyl)-2-oxo-1,2-dihydropyridine-3-carboxamide], the negative-log IC50 (pIC50) in the test on Ba/F3 LMNA-NTRK1 cells is greater than 7.30; at c-MET kinase it was no less than 7.30; on MER kinase, 6.30 to 7.30; against TRKA kinase, greater than 7.30.
